Assay [1] concerns the target T1, Lysine-specific demethylase 4E (Homo sapiens, UniProt B2RXH2).
T1 sequence (B2RXH2 whole entry): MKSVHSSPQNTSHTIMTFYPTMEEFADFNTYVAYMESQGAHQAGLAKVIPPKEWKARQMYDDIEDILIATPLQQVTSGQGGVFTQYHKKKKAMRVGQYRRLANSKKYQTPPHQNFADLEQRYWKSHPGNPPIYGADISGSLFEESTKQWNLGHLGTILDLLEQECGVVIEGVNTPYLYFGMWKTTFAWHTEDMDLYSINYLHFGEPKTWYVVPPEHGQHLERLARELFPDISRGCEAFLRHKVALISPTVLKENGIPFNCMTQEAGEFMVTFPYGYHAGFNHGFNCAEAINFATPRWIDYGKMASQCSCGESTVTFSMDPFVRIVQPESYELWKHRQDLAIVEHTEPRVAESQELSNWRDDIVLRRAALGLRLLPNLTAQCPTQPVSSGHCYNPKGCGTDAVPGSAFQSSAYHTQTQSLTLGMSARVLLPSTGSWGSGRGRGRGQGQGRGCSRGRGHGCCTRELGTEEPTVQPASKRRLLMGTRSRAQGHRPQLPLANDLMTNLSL
Kind of assay: Inhibition of JMJD2E.

A short description of assay [2]: Growth inhibition of human KYSE-150 cells after 48 hrs by MTT assay. In kind it is functional. The following applies: KYSE-150, 48 h. In general terms: Formazan colour is commonly taken as a measure of viable cells.
Assay [3] deals with T1, Lysine-specific demethylase 4E.
Description: Inhibition of JMJD2E catalytic domain by mass spectrophotometric analysis
For assay [4] the target is unchanged. Nature of the assay: Inhibition of human JMJD2E.
Assay [5] concerns the target T2, Histone-lysine N-methyltransferase EHMT2 (Homo sapiens, UniProt Q96KQ7).
T2 sequence (Q96KQ7 whole entry): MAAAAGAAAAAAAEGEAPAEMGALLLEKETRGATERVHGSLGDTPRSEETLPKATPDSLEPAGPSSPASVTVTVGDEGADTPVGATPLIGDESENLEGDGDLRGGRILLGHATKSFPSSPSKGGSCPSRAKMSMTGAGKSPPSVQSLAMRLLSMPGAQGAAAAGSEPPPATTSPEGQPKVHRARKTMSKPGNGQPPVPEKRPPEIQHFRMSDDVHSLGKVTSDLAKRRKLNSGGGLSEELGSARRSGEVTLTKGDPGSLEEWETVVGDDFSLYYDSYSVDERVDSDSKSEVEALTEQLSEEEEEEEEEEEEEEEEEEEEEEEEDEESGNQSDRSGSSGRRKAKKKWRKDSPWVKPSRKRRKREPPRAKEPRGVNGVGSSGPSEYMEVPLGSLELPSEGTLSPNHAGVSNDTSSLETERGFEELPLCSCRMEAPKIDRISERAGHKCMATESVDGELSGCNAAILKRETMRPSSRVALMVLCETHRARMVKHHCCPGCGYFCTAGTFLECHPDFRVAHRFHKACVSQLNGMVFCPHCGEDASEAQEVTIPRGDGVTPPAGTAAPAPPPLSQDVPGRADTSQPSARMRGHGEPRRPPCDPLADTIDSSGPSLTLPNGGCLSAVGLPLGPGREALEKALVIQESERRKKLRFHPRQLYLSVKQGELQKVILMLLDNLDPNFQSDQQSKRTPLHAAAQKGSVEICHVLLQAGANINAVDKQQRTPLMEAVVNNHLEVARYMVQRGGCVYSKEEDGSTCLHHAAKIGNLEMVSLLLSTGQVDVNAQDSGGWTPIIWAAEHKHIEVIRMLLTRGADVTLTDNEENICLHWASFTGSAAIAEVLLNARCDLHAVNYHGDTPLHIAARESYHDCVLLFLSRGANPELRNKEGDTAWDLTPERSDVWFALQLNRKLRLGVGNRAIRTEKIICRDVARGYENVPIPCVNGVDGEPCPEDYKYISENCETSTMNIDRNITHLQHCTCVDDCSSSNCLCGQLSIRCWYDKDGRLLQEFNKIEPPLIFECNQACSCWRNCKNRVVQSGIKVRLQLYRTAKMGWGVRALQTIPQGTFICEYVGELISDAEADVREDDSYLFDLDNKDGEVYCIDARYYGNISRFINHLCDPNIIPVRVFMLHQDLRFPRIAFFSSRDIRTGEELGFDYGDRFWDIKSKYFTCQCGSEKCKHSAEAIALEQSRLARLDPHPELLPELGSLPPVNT
Kind of assay: Inhibition of G9a.

The target of assay [6] is T3, Histone-lysine N-methyltransferase SUV39H1 (Homo sapiens, UniProt O43463).
T3 sequence (O43463 whole entry): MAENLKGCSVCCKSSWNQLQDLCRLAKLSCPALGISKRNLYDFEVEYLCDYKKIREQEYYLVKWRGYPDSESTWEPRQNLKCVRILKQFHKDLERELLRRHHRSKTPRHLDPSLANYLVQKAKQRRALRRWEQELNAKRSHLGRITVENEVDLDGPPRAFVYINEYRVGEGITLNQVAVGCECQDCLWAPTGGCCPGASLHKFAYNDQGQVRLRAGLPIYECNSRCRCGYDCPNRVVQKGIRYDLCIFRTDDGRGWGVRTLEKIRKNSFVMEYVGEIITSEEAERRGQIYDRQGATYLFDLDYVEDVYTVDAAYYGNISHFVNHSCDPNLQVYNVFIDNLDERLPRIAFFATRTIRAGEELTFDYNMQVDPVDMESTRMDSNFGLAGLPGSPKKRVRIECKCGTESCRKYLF

In assay [7] the target is Lysine-specific histone demethylase 1A (Homo sapiens, UniProt O60341).
Description: Inhibition of full length N-terminal 6x His-tagged human LSD1 expressed in Escherichia coli BL21 (DE3) using H3K4me2 peptide as substrate by luminol dependent chemiluminescence assay
In assay [8] the target is T4, Histone-arginine methyltransferase CARM1 (Homo sapiens, UniProt Q86X55).
T4 sequence (Q86X55 whole entry): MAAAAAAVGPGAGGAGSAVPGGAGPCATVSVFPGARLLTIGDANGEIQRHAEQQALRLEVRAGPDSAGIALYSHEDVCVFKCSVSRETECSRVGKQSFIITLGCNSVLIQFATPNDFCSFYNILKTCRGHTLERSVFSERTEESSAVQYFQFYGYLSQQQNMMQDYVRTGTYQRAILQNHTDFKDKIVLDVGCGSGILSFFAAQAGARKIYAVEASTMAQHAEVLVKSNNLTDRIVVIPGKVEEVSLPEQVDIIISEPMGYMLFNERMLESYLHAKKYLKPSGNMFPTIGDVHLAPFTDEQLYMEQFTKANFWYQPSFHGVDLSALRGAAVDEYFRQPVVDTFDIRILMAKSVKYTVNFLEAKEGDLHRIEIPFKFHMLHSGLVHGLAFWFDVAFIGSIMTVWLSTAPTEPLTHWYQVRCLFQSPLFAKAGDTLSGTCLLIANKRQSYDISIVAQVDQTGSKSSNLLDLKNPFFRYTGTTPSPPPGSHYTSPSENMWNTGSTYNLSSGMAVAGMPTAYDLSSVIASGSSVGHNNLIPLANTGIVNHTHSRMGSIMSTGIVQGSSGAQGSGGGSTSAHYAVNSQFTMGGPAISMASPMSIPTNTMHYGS
Description: Inhibition of human CARM1 expressed in Escherichia coli BL21 (DE3) using [3H]-SAM as substrate preincubated for 10 mins before substrate addition measured after 30 mins by scintillation counter

The target in assay [9] is T3, Histone-lysine N-methyltransferase SUV39H1. Kind of assay: Inhibition of SUV39H1 using [3H]-SAM as substrate preincubated for 10 mins before substrate addition measured after 30 mins by scintillation counter.
The target in assay [10] is T2, Histone-lysine N-methyltransferase EHMT2. Kind of assay: Inhibition of G9a using [3H]-SAM as substrate preincubated for 10 mins before substrate addition measured after 30 mins by scintillation counter.
Assay [11] concerns the target Protein arginine N-methyltransferase 1 (Homo sapiens, UniProt Q99873).
Description: Inhibition of PRMT1 using [3H]-SAM as substrate preincubated for 10 mins before substrate addition measured after 30 mins by scintillation counter
In assay [12] the target is T2, Histone-lysine N-methyltransferase EHMT2.
Description: Inhibition of GST-tagged G9a after 1 hr by radioactive filter-binding assay
A further assay relates to PC-3. Kind of assay: Growth inhibition of human PC3 cells after 48 hrs by MTT assay. In kind it is functional. The following applies: PC-3, 48 h.
In the next assay the test system is HeLa. Kind of assay: Growth inhibition of human HeLa cells after 48 hrs by MTT assay. In kind it is functional.
The test system of assay [13] is HCT-116. Nature of the assay: Growth inhibition of human HCT116 cells after 48 hrs by MTT assay. In kind it is functional. The following applies: HCT-116, 48 h.
Another assay deals with SH-SY5Y. Kind of assay: Growth inhibition of human SH-SY5Y cells after 48 hrs by MTT assay. It counts as functional.
Assay [14] relates to HCT-116. Nature of the assay: Growth inhibition of human HCT116 cells after 24 to 48 hrs by MTT assay. In kind it is functional.
A further assay relates to RKO. Nature of the assay: Growth inhibition of human RKO cells expressing p53 after 24 to 48 hrs by MTT assay. In kind it is functional.
In assay [15] the target is T5, N-lysine methyltransferase SMYD2 (Homo sapiens, UniProt Q9NRG4). Kind of assay: Inhibition of full length human SMYD2 amino acid 1 to 433 expressed in Escherichia coli BL21 (DE3) using Biotinaminohexanoyl- GSRAHSSHLKSKKGQSTSRH as substrate after 75 mins by AlphaScreen assay.
For assay [16], the species on record is Homo sapiens. Nature of the assay: Selectivity ratio of IC50 for SET7/9 to IC50 for human SMYD2.
The species named for assay [17] is Homo sapiens. Nature of the assay: Selectivity ratio of IC50 for G9a to IC50 for human SMYD2.
Assay [18] concerns the target T5, N-lysine methyltransferase SMYD2. Nature of the assay: Competitive binding affinity to full length human SMYD2 amino acid 1 to 433 expressed in Escherichia coli BL21 (DE3) after 90 mins by radioactive filter-binding assay in presence of P53 peptide.
Assay [19] is filed under the species Homo sapiens. Kind of assay: Selectivity ratio of IC50 for SMYD3 to IC50 for human SMYD2.
The species entered for assay [20] is Homo sapiens. Kind of assay: Selectivity ratio of IC50 for GLP to IC50 for human SMYD2.
The species named for assay [21] is Homo sapiens. Kind of assay: Selectivity ratio of IC50 for EZH2 to IC50 for human SMYD2.
Assay [22] is filed under the species Homo sapiens. Kind of assay: Selectivity ratio of IC50 for DOT1L to IC50 for human SMYD2.

As usually defined, the IC50 is the midpoint of a concentration-inhibition curve. One may read the GI50 as the concentration giving 50% growth inhibition. In general, Ki refers to a dissociation constant, usually derived from enzyme kinetics or from competition with a known ligand.

T5 sequence (Q9NRG4 whole entry): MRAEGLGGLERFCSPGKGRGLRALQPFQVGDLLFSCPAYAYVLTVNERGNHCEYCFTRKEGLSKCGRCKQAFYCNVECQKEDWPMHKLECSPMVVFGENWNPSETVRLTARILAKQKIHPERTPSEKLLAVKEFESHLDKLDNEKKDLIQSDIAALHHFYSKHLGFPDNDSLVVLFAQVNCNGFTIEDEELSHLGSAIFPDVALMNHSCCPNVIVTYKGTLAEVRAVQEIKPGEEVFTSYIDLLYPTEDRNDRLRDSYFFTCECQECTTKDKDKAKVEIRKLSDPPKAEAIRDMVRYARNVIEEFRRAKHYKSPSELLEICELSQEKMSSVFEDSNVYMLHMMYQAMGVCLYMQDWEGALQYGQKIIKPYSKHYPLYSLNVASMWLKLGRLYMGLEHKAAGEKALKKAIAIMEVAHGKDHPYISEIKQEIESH
Sequence of Protein arginine N-methyltransferase 1 (Q99873 whole entry): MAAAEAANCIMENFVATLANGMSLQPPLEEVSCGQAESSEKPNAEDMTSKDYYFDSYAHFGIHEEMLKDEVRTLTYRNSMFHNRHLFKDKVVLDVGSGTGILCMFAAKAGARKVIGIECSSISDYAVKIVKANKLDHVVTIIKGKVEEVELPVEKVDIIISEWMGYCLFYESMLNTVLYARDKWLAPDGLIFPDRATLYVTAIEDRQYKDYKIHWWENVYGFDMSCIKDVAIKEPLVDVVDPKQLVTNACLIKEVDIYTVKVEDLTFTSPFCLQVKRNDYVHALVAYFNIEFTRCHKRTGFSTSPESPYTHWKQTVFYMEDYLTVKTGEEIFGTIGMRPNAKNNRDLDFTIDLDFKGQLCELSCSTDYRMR

Compound `O=C(O)/C=C/C(=O)N(O)CCCCNCc1ccc(COC(=O)Nc2cccc3ccccc23)cc1` had a half-inhibitory concentration (IC50) in [1] of 5.9 µM. In assay [2], the GI50 is 5.1 µM.
On to `O=C(O)c1ccnc(-c2cc(C(=O)NCCc3ccccc3)ccn2)c1`, for which, in [3], half-maximal inhibition (IC50) was put at 0.11 µM.
`O=C(O)c1ccnc(C(=O)O)c1Nc1ccccc1F` came in with a half-inhibitory concentration (IC50) in assay [4] of 2.5 µM.
Turning to `CS[C@]1(CO)C(=O)N2[C@H]3C(=CC=C[C@@H]3OC(C)=O)C[C@@]2(SC)C(=O)N1C`, the IC50 in assay [5] and in assay [6] was over 10 µM in each case.
`C/N=C(\NC)NCCCNCCCNCCCN/C(=N/C)NC` displayed a concentration for half-maximal inhibition (IC50) in assay [7] of 0.5 µM. In other words, the sub-micromolar range.
As to `CN1C(=O)[C@]23CC4=CC=C[C@H](O)[C@H]4N2C(=O)[C@@]1(CO)SS3` [GLIOTOXIN], the IC50 in assay [5] worked out at 0.53 µM; in assay [6], 0.26 µM.
In the case of `N[C@@H](CCCN(CCI)C[C@H]1O[C@@H](n2cnc3c(NCc4ccccc4)ncnc32)[C@H](O)[C@@H]1O)C(=O)O`, the IC50 in [8], in [9], in assay [10] and in assay [11] was over 100 µM each time.
As to `CN1C(=O)[C@H]2C[C@]3([C@]45C[C@@H]6C(=O)N(C)[C@H](CO)C(=O)N6[C@H]4Nc4ccccc45)c4ccccc4N[C@@H]3N2C(=O)[C@H]1CO`, the half-inhibitory concentration (IC50) in assay [12] is over 50 µM.
In [3], `NCCNC(=O)c1ccnc(-c2cc(C(=O)O)ccn2)c1` displayed a half-inhibitory concentration (IC50) of 0.18 µM. In other words, the sub-micromolar range.
On to `CN1C(=O)[C@@]23C[C@]4([C@]56C[C@@]78SS[C@@](C)(C(=O)N7[C@H]5Nc5ccccc56)N(C)C8=O)c5ccccc5N[C@@H]4N2C(=O)[C@]1(C)SS3`, for which the IC50 is 0.63 µM in [5] and 0.53 µM in assay [6].
On to `NC1CC1c1cccc(OCC[C@H](NC(=O)c2ccccc2)C(=O)NCc2ccccc2)c1` (stereo partly drawn), for which the GI50 (in the assay on PC-3; in the assay with HeLa; in [2]; with HCT-116 [13]; in the assay on SH-SY5Y) was 6 µM throughout.
With `CNc1ncnc2c1ncn2[C@@H]1O[C@H](CN(CCI)CCC[C@H](N)C(=O)O)[C@@H](O)[C@H]1O`, the half-inhibitory concentration (IC50) in assay [8], in assay [9] and in [10] was over 100 µM in each case.
Regarding `CCNCCCCNCCCCNCCCCNCCCCNC/C=C\CNCCCCNCCCCNCCCCNCCCCNCC`, the concentration for 50% growth inhibition (GI50) in the assay on HCT-116 [14] and in the assay with RKO was 2.5 µM in each case.
In turn, `CN1C(=O)[C@]23C[C@@]4([C@@]56C[C@]78SS[C@](CO)(C(=O)N7[C@@H]5Nc5ccccc56)N(C)C8=O)c5ccccc5N[C@H]4N2C(=O)[C@@]1(CO)SS3` displayed an IC50 in assay [12] of 1.7 µM.
Consider `O=C1COc2c(CCNCCN(C(=O)CCNCCc3ccc(Cl)c(Cl)c3)C3CCCCC3)ccc(O)c2N1`, for which the 50% inhibitory concentration (IC50) in assay [15] is 0.12 µM. Also, the Ratio IC50 in the assay listed under Homo sapiens [16], in the assay listed under Homo sapiens [17], in the assay listed under Homo sapiens [19], in the assay filed under Homo sapiens [20], in the assay filed under Homo sapiens [21] and in the assay listed under Homo sapiens [22] was 700 each time. Further, the inhibition constant Ki in assay [18] is 0.3 µM.
With `N[C@@H]1C[C@H]1c1ccc(OCC[C@H](NC(=O)c2ccccc2)C(=O)NCc2ccccc2)cc1`, the GI50 (in the assay with PC-3; in the assay with HeLa; in [2]; in the assay on HCT-116 [13]; with SH-SY5Y) was 6 µM throughout.
Regarding `CCNCCCCNCCCCNCCCCNCCCCNC/C=C/CNCCCCNCCCCNCCCCNCCCCNCC`, the 50% growth inhibitory concentration (GI50) with HCT-116 [14] and in the assay on RKO was 2.5 µM each time.
